# Columns and labels:
# [1] = molecular target: D(2) dopamine receptor (Homo sapiens) (UniProt P14416); assay: Displacement of [3H]N-methylspiperone from human recombinant D2 receptor at 10 uM after 1.5 hrs by microbeta scintillation counting analysis
# [2] = molecular target: Muscarinic acetylcholine receptor M4 (Homo sapiens) (UniProt P08173); assay: Displacement of [3H]QNB from human recombinant muscarinic M4 receptor at 10 uM after 1.5 hrs by microbeta scintillation counting analysis
# [3] = molecular target: Sodium-dependent noradrenaline transporter (Homo sapiens, UniProt P23975); assay: Displacement of [3H]nisoxetine from human recombinant NET after 1.5 hrs by microbeta scintillation counting analysis
# [4] = molecular target: 5-hydroxytryptamine receptor 1A (Homo sapiens) (UniProt P08908); assay: Displacement of [3H]-8-OH-DPAT from human recombinant 5-HT1A receptor at 10 uM after 1.5 hrs by microbeta scintillation counting analysis
# [5] = molecular target: 5-hydroxytryptamine receptor 7 (Homo sapiens) (UniProt P34969); assay: Displacement of [3H]LSD from human recombinant 5-HT7 receptor at 10 uM after 1.5 hrs by microbeta scintillation counting analysis
# Rattus norvegicus [6] = species on record: Rattus norvegicus; assay: Inhibitory activity against benzodiazepine receptor in rat brain at 10 uM; assay type: tissue-based
# [7] = molecular target: Alpha-2C adrenergic receptor (Homo sapiens) (UniProt P18825); assay: Displacement of [3H]clonidine from alpha 2C adrenergic receptor at 10 uM after 40 mins by microbeta scintillation counting analysis
# [8] = molecular target: Alpha-2B adrenergic receptor (Homo sapiens) (UniProt P18089); assay: Displacement of [3H]clonidine from human recombinant alpha 2B adrenergic receptor at 10 uM after 40 mins by microbeta scintillation counting analysis
# [9] = molecular target: Muscarinic acetylcholine receptor M1 (Homo sapiens) (UniProt P11229); assay: Displacement of [3H]QNB from human recombinant muscarinic M1 receptor at 10 uM after 1.5 hrs by microbeta scintillation counting analysis
# [10] = molecular target: Histamine H4 receptor (Homo sapiens) (UniProt Q9H3N8); assay: Displacement of [3H]histamine from histamine H4 receptor at 10 uM after 1.5 hrs by microbeta scintillation counting analysis
# Histamine H1 receptor = Histamine H1 receptor (Homo sapiens, UniProt P35367); assay: Displacement of [3H]pyrilamine from human recombinant histamine H1 receptor at 10 uM after 1.5 hrs by microbeta scintillation counting analysis
# [11] = molecular target: Beta-2 adrenergic receptor (Homo sapiens, UniProt P07550); assay: Displacement of [125I]Iodopindolol from beta 2 adrenergic receptor at 10 uM after 1.5 hrs by microbeta scintillation counting analysis
# [12] = molecular target: 5-hydroxytryptamine receptor 2B (Homo sapiens, UniProt P41595); assay: Displacement of [3H]LSD from human recombinant 5-HT2B receptor at 10 uM after 1.5 hrs by microbeta scintillation counting analysis
# [13] = molecular target: Beta-1 adrenergic receptor (Homo sapiens) (UniProt P08588); assay: Displacement of [125I]Iodopindolol from beta 1 adrenergic receptor at 10 uM after 1.5 hrs by microbeta scintillation counting analysis
# [14] = molecular target: D(1B) dopamine receptor (Homo sapiens) (UniProt P21918); assay: Displacement of [3H]SCH23390 from human recombinant D5 receptor at 10 uM after 1.5 hrs by microbeta scintillation counting analysis
# [15] = molecular target: Muscarinic acetylcholine receptor M3 (Homo sapiens) (UniProt P20309); assay: Displacement of [3H]QNB from human recombinant muscarinic M3 receptor at 10 uM after 1.5 hrs by microbeta scintillation counting analysis
# [16] = molecular target: Kappa-type opioid receptor (Rattus norvegicus) (UniProt P34975); assay: Displacement of [3H]U69593 from rat kappa-opioid receptor at 10 uM after 1.5 hrs by microbeta scintillation counting analysis
# [17] = molecular target: 5-hydroxytryptamine receptor 1D (Homo sapiens) (UniProt P28221); assay: Displacement of [3H]GR125743 from human recombinant 5-HT1D receptor at 10 uM after 1.5 hrs by microbeta scintillation counting analysis
# [18] = molecular target: Muscarinic acetylcholine receptor M5 (Homo sapiens) (UniProt P08912); assay: Displacement of [3H]QNB from human recombinant muscarinic M5 receptor at 10 uM after 1.5 hrs by microbeta scintillation counting analysis
# [19] = molecular target: T1, Sodium-dependent dopamine transporter (Homo sapiens, UniProt Q01959); assay: Displacement of [3H]WIN35428 from human recombinant DAT at 10 uM after 1.5 hrs by microbeta scintillation counting analysis
# [20] = molecular target: Sodium-dependent serotonin transporter (Homo sapiens) (UniProt P31645); assay: Displacement of [3H]citalopram from human recombinant SERT at 10 uM after 1.5 hrs by microbeta scintillation counting analysis
# [21] = molecular target: T2, 5-hydroxytryptamine receptor 2A (Homo sapiens, UniProt P28223); assay: Displacement of [3H]ketanserin from human recombinant 5-HT2A receptor after 1.5 hrs by microbeta scintillation counting analysis
# [22] = molecular target: 5-hydroxytryptamine receptor 6 (Homo sapiens, UniProt P50406); assay: Displacement of [3H]LSD from human recombinant 5-HT6 receptor at 10 uM after 1.5 hrs by microbeta scintillation counting analysis
# [23] = molecular target: 5-hydroxytryptamine receptor 2C (Homo sapiens, UniProt P28335); assay: Displacement of [3H]mesulergine from human recombinant 5-HT2C receptor after 1.5 hrs by microbeta scintillation counting analysis
# [24] = molecular target: Beta-3 adrenergic receptor (Homo sapiens) (UniProt P13945); assay: Displacement of [125I]Iodopindolol from beta 3 adrenergic receptor at 10 uM after 1.5 hrs by microbeta scintillation counting analysis
# [25] = molecular target: D(3) dopamine receptor (Homo sapiens) (UniProt P35462); assay: Displacement of [3H]N-methylspiperone from D3 receptor at 10 uM after 1.5 hrs by microbeta scintillation counting analysis
# Rattus norvegicus [26] = species on record: Rattus norvegicus; assay: Displacement of [3H]muscimol from GABAA receptor in rat brain membrane at 10 uM after 1.5 hrs by microbeta scintillation counting analysis; assay type: cell membranes
# [27] = molecular target: 5-hydroxytryptamine receptor 1E (Homo sapiens) (UniProt P28566); assay: Displacement of [3H]5-HT from human recombinant 5-HT1E receptor at 10 uM after 1.5 hrs by microbeta scintillation counting analysis
# [28] = molecular target: Histamine H3 receptor (Homo sapiens) (UniProt Q9Y5N1); assay: Displacement of [3H]alpha-methylhistamine from human recombinant histamine H3 receptor at 10 uM after 1.5 hrs by microbeta scintillation counting analysis
# [29] = molecular target: T1, Sodium-dependent dopamine transporter; assay: Displacement of [3H]WIN35428 from human recombinant DAT after 1.5 hrs by microbeta scintillation counting analysis
# [30] = molecular target: 5-hydroxytryptamine receptor 3A (Homo sapiens) (UniProt P46098); assay: Displacement of [3H]LY-278584 from human recombinant 5-HT3 receptor at 10 uM after 1.5 hrs by microbeta scintillation counting analysis
# [31] = molecular target: T2, 5-hydroxytryptamine receptor 2A; assay: Displacement of [3H]ketanserin from human recombinant 5-HT2A receptor at 10 uM after 1.5 hrs by microbeta scintillation counting analysis
# [32] = molecular target: D(4) dopamine receptor (Homo sapiens) (UniProt P21917); assay: Displacement of [3H]N-methylspiperone from D4 receptor at 10 uM after 1.5 hrs by microbeta scintillation counting analysis
# [33] = molecular target: Mu-type opioid receptor (Homo sapiens) (UniProt P35372); assay: Displacement of [3H]DAMGO from mu-opioid receptor at 10 uM after 1.5 hrs by microbeta scintillation counting analysis
# Chain of Mu-type opioid receptor (Homo sapiens) (P35372 whole entry): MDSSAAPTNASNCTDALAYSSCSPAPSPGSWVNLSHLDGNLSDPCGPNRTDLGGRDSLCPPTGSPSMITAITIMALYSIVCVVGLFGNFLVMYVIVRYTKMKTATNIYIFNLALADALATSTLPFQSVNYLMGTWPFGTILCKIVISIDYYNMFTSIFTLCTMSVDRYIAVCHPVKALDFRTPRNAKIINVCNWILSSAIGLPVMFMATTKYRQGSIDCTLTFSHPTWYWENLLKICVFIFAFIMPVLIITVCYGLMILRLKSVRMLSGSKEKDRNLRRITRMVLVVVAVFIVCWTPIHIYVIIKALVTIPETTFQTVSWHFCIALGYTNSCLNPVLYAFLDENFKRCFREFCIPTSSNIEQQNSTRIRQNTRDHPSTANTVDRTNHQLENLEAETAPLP
# T2 sequence (P28223 whole entry): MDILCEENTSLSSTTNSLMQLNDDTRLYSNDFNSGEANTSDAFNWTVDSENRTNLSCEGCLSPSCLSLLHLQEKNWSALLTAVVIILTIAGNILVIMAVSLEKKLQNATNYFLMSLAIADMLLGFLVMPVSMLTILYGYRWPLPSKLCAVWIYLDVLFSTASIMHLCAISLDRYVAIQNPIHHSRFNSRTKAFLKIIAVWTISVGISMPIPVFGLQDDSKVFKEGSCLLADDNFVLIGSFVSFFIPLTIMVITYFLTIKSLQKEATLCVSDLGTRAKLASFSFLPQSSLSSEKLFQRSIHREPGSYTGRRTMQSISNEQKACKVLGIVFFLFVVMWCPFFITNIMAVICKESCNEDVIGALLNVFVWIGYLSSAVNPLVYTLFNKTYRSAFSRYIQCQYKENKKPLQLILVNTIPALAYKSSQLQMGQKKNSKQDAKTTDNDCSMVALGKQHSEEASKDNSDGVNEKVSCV
# T1 sequence (Q01959 whole entry): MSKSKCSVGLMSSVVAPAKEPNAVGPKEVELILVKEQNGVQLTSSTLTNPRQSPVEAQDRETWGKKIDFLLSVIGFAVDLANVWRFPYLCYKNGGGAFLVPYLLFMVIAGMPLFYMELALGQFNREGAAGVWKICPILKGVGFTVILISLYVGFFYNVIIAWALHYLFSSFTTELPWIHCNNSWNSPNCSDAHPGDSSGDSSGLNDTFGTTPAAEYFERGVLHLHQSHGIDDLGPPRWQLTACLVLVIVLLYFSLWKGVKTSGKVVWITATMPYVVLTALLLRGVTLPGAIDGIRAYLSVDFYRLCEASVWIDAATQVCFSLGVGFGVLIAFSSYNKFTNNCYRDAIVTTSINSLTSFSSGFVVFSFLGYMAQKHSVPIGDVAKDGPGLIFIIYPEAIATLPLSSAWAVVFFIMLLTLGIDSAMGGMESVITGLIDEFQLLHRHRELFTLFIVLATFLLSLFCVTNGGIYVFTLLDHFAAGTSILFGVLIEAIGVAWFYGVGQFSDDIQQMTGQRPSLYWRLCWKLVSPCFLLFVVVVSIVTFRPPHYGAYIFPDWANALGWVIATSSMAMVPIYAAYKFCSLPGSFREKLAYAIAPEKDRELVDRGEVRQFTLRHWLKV
# Chain of 5-hydroxytryptamine receptor 3A (Homo sapiens) (P46098 whole entry): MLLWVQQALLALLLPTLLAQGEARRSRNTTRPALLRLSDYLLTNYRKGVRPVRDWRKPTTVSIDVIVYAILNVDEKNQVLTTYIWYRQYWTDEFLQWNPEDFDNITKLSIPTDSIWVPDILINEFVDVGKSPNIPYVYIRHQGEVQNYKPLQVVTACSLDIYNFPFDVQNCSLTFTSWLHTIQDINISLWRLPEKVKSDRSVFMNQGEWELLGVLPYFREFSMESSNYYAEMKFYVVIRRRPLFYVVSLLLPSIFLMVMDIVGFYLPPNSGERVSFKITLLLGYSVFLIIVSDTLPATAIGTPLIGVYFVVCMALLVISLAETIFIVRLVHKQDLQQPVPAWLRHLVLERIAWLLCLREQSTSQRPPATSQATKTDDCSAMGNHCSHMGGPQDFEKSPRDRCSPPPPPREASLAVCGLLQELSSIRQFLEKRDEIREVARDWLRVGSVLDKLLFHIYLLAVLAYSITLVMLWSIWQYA
# Chain of 5-hydroxytryptamine receptor 1A (Homo sapiens) (P08908 whole entry): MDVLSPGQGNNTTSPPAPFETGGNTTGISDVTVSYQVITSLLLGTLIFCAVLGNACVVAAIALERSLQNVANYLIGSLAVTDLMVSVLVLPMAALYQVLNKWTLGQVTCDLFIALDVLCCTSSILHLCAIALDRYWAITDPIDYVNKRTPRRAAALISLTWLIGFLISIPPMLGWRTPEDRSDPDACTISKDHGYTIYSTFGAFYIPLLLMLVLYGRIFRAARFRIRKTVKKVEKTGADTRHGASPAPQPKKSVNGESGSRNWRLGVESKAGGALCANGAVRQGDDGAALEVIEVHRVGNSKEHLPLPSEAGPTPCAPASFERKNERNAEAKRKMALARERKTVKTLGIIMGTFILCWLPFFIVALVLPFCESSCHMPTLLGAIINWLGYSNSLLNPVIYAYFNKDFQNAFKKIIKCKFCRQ
# Chain of Muscarinic acetylcholine receptor M1 (Homo sapiens) (P11229 whole entry): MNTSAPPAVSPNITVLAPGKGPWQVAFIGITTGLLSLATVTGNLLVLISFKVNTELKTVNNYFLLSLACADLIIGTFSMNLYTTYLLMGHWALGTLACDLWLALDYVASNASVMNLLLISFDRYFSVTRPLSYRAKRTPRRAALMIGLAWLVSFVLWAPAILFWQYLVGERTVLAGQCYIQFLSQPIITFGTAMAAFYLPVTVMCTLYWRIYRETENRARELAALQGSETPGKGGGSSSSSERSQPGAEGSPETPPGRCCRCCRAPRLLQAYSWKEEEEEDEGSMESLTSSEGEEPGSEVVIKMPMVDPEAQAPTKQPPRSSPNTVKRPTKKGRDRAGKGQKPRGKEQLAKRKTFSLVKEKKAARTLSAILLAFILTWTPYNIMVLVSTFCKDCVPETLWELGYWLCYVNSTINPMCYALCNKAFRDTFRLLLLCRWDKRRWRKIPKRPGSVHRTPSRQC
# Chain of D(4) dopamine receptor (Homo sapiens) (P21917 whole entry): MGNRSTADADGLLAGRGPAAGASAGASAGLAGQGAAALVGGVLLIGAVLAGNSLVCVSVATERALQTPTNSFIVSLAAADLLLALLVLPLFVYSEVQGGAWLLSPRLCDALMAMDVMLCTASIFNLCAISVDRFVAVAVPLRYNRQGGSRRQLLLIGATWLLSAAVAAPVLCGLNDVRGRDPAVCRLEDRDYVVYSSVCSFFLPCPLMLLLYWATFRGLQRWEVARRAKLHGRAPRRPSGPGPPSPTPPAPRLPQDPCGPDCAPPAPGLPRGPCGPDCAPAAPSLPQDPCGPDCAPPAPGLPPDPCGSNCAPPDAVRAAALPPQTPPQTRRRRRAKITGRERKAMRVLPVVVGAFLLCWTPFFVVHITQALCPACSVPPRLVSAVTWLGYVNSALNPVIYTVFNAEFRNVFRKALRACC
# Chain of 5-hydroxytryptamine receptor 2B (P41595 whole entry): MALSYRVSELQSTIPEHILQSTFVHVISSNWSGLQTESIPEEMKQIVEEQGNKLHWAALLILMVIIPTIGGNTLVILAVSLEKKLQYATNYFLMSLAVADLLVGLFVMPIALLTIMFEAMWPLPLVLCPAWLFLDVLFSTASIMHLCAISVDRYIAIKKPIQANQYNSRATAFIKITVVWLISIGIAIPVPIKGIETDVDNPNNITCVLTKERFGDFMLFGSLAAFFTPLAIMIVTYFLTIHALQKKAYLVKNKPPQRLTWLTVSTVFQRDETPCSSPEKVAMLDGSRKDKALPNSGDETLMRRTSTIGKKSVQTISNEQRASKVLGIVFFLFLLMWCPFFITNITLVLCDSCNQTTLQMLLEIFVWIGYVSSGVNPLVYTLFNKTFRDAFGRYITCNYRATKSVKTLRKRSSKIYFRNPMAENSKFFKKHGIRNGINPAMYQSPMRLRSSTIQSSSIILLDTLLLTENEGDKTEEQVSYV
# Chain of 5-hydroxytryptamine receptor 1D (Homo sapiens) (P28221 whole entry): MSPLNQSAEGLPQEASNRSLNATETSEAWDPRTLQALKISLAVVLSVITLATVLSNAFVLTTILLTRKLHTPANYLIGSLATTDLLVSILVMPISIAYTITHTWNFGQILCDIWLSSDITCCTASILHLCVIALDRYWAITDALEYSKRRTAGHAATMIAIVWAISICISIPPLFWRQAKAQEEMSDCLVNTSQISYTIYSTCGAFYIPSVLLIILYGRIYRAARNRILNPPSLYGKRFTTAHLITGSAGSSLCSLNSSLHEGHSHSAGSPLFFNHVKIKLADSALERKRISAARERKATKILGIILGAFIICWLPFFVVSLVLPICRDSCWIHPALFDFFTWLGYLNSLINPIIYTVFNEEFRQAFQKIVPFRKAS
# Chain of Sodium-dependent noradrenaline transporter (P23975 whole entry): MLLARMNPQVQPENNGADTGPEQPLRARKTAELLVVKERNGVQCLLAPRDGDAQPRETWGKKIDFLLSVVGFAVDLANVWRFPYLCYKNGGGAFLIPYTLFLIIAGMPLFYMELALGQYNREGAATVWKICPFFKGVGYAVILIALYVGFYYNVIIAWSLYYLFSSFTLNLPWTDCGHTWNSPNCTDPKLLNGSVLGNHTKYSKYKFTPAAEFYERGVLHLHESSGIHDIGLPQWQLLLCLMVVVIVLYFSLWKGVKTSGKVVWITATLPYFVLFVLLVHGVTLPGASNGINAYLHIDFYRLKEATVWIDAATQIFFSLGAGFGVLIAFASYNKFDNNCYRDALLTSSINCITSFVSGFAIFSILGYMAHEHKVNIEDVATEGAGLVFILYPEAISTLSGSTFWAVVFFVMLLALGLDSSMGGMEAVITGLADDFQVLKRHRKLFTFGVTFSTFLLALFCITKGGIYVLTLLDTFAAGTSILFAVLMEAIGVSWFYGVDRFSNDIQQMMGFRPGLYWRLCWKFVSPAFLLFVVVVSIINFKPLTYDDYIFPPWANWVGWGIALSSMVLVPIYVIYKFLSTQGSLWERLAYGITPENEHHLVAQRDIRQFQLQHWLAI
SMILES,Efficacy [1],Efficacy [2],Ki [3],Efficacy [4],Efficacy [5],Efficacy (Rattus norvegicus [6]),Efficacy [7],Efficacy [8],Efficacy [9],Efficacy [10],Efficacy (Histamine H1 receptor),Efficacy [11],Efficacy [12],Efficacy [13],Efficacy [14],Efficacy [15],Efficacy [16],Efficacy [17],Efficacy [18],Efficacy [19],further results
c1ccc(OCc2cc(OC[C@@H]3CCCN3)no2)cc1,23.9%,33.6%,0.203 µM,34.4%,16.9%,27.1%,39.3%,44.4%,4.4%,26.5%,55%,55.6%,54.5%,-1.2%,36.5%,12.2%,9.4%,15.7%,36.6%,59.4%,Efficacy [20]: 3.4%; Ki [21]: 4.41 µM; Efficacy [22]: 28.3%; Ki [23]: > 10 µM; Efficacy [24]: 7.2%; Efficacy [25]: 35.9%; Efficacy (Rattus norvegicus [26]): 5.7%; Efficacy [27]: -4.7%; Efficacy [28]: -4.9%; Ki [29]: 0.373 µM; Efficacy [30]: 7%; Efficacy [31]: 68%; Efficacy [32]: 32%; Efficacy [33]: 29.8%
c1ccc(OCc2cc(OC[C@@H]3CCN3)no2)cc1,22.9%,35.1%,0.191 µM,26.3%,42.4%,23.5%,43.8%,34.8%,5.7%,42.6%,49.2%,29.4%,43.3%,22.1%,4.9%,47.6%,6.7%,14%,44.5%,91.8%,Efficacy [20]: 8.8%; Ki [21]: 6.4 µM; Efficacy [22]: 51.6%; Ki [23]: > 10 µM; Efficacy [24]: -1.5%; Efficacy [25]: 12.9%; Efficacy (Rattus norvegicus [26]): 2.5%; Efficacy [27]: 5.9%; Efficacy [28]: 4.7%; Ki [29]: 0.024 µM; Efficacy [30]: -0.1%; Efficacy [31]: 77.9%; Efficacy [32]: 30%; Efficacy [33]: 38.1%

# Reference: ChEMBL document CHEMBL2203055, “From α4β2 Nicotinic Ligands to the Discovery of σ1 Receptor Ligands: Pharmacophore Analysis and Rational Design” (ACS Med Chem Lett, 2012)
